These results are taken from patent publication US20100241219A1, “MEDICAMENT DELIVERY ARTICLE, ACCESSORY & SYSTEM” (ABBEYMOOR MEDICAL , INC, priority 2005, published 2010).

Data set [1] is described as follows: Dye penetration from polyurethane coating on silicone sheets into calf liver tissue. The conditions noted are these: 1% dye in TPU matrix on silicone rubber sheet placed against calf liver for 24 or 48 hours. It counts as in vitro ADME. The procedure: Mitoxantrone, and ciprofloxacin were likewise tested.
Dyes and drugs were first coated onto silicone rubber sheets as droplets, and dried at 70° C. overnight. To gain a first approximation of the ability of the dyes to penetrate tissue, the sheets were placed against the outer membrane of calf liver, either for 24 or 48 hours. The tissue was placed on top of the sheet and supplied with nothing more that the pressure of the tissue against the sheet.

Data set [2] can be described thus: Dye penetration from coated stents into excised human prostate tissue. The conditions noted are these: dye bands on stent in excised prostate, 37° C., after 48 hours.
Text: As to materials, acidic, basic or lipophilic dyes, with molecular weights in the range of 3-400, were used, including: crystal violet (MW 408); basic Nile blue (MW 300); Nile red lipophilic; oil red O lipophilic; erythrosin (MW 890) acidic; and, methylene blue (MW 319) acidic. Mitoxantrone, and ciprofloxacin were likewise tested. The dyes and agents were mixed in a thermoplastic polyurethane (TPU) matrix comprising of 30/70 weight ratio of Carbothane® 72D, an aliphatic, polycarbonate based TPU, to Tecophil®, a hydrophilic, aliphatic, polyether-based TPU (Noveon, Inc.) in a 50/50 mixture of DMAC and THF. The polymers were prepared, 5% by weight, with dyes or agents added to the mixture as an additional 1% by weight.
Human prostate tissue was obtain postmortem, and within 24 hours thereof, and flash froze. The tissue was thereafter thawed at ambient temperature, and used within 12 hours. The tissue was not fixed.
Six dyes, namely, methylene blue, crystal violet, a combination of Nile blue and Nile red, oil red O, and erythrosin were coated onto two stents in the form of 3 mm bands or rings. One stent was coated with both mitoxantrone, and ciprofloxacin. Thereafter, the stents were placed in a phosphate buffered Ringer's solution with 1% virocide into excised prostates for 24 and 48 hours at 37° C. […]

The structures appear in SMILES notation.

Regarding `CCN(CC)c1ccc2nc3c4ccccc4c(=O)cc-3oc2c1` [Nile red], the “penetration / staining of liver tissue” value in data set [1] was “only mildly stained the tissue”.
On the same count and under the same terms, to `CN(C)c1ccc(C(=C2C=CC(=[N+](C)C)C=C2)c2ccc(N(C)C)cc2)cc1` [crystal violet] belongs “penetrated the tissue to the greatest extent”.
In the case of `O.O=C([O-])c1ccccc1-c1c2cc(I)c(=O)c(I)c-2oc2c(I)c([O-])c(I)cc12.[Na+].[Na+]` [erythrosin], the “staining of prostatic tissue” value in data set [2] was “approximately equivalent”.
For `Cc1ccc(C)c(N=Nc2cc(C)c(N=Nc3c(O)ccc4ccccc34)cc2C)c1` [oil red O], the “penetration / staining of liver tissue” value in data set [1] is listed as “only mildly stained the tissue”. For the same compound, the “staining of prostatic tissue” value in data set [2] is recorded as “staining the least”.
